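Exposure lasted 48 hours, with cells grown in 96-well plates and compounds tested at five concentrations. GI50 marks 50% less growth.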 The source made the active and inactive calls. Rule as the data show it: active = GI50 up to about 1.1 µM and inactive = higher.
Tests used:
Assay in all cases: NCI anticancer screen, dose series, 48 h
DMS-114 = tested on: DMS-114
EKVX = tested on: EKVX
HCT-116 = tested on: HCT-116
HOP-18 = tested on: HOP-18
HOP-62 = tested on: HOP-62
HT-29 = tested on: HT-29
M14 = tested on: M14
NCI-H23 = tested on: NCI-H23
OVCAR-3 = tested on: OVCAR-3
OVCAR-4 = tested on: OVCAR-4
RPMI-8226 = tested on: RPMI-8226
SK-OV-3 = tested on: SK-OV-3
U-251 = tested on: U-251
UACC-257 = tested on: UACC-257
UO-31 = tested on: UO-31
HL-60 = tested on: HL-60

Compound | GI50 (DMS-114) | GI50 (EKVX) | GI50 (HCT-116) | GI50 (HOP-18) | GI50 (HOP-62) | GI50 (HT-29) | GI50 (M14) | GI50 (NCI-H23) | GI50 (OVCAR-3) | GI50 (OVCAR-4) | GI50 (RPMI-8226) | GI50 (SK-OV-3) | GI50 (U-251) | GI50 (UACC-257) | GI50 (UO-31) | GI50 (HL-60)
O=C(O)[C@H](NS(=O)(=O)c1ccc(F)cc1)c1ccccc1 | > 100 µM (inactive) | > 100 µM (inactive) | > 100 µM (inactive) | > 100 µM (inactive) | > 100 µM (inactive) | > 100 µM (inactive) | > 100 µM (inactive) | > 100 µM (inactive) | > 100 µM (inactive) | > 100 µM (inactive) | > 100 µM (inactive) | > 100 µM (inactive) | > 100 µM (inactive) | > 100 µM (inactive) | > 100 µM (inactive) | –
COc1ccc(NC(=O)/C(=C/c2ccccc2)C(C)=O)cc1 | 15.2 µM (inactive) | 22.5 µM (inactive) | – | 13.5 µM (inactive) | 18 µM (inactive) | 13.3 µM (inactive) | 12.9 µM (inactive) | > 10 µM (inactive) | 16.3 µM (inactive) | 11.6 µM (inactive) | 5.24 µM (inactive) | 40.2 µM (inactive) | 15.2 µM (inactive) | 13.3 µM (inactive) | 15.4 µM (inactive) | 3.39 µM (inactive)
Cc1cc(N(CCC#N)CCC#N)ccc1/C(Sc1ccccc1)=C(\NC(=O)/C=C/c1ccccc1)C(=O)Sc1ccccc1 | 1.54 µM (inactive) | 6.18 µM (inactive) | 2.17 µM (inactive) | 14 µM (inactive) | 2.56 µM (inactive) | 2.91 µM (inactive) | 1.82 µM (inactive) | 2.22 µM (inactive) | 2.92 µM (inactive) | 3.06 µM (inactive) | 0.991 µM (active) | 5.55 µM (inactive) | 0.82 µM (active) | 5.53 µM (inactive) | 0.731 µM (active) | 0.628 µM (active)
C=C[Si](C)(C)COC(=O)/C(C#N)=C/C=C/c1ccccc1 | > 100 µM (inactive) | > 100 µM (inactive) | > 100 µM (inactive) | > 100 µM (inactive) | > 100 µM (inactive) | > 100 µM (inactive) | > 100 µM (inactive) | > 100 µM (inactive) | 34.8 µM (inactive) | > 100 µM (inactive) | 37.2 µM (inactive) | > 100 µM (inactive) | > 100 µM (inactive) | > 100 µM (inactive) | > 100 µM (inactive) | 39.2 µM (inactive)
Cc1nc(N)nc(N)c1CCCCc1ccccc1 | 5.02 µM (inactive) | 20 µM (inactive) | 5.21 µM (inactive) | 42.1 µM (inactive) | 13.6 µM (inactive) | 2.47 µM (inactive) | 6.21 µM (inactive) | 4.29 µM (inactive) | 9.95 µM (inactive) | 58.6 µM (inactive) | 20.8 µM (inactive) | 31.9 µM (inactive) | 11.2 µM (inactive) | 10.2 µM (inactive) | 19.4 µM (inactive) | 4.55 µM (inactive)
NC(=S)N/N=C(/CCN1CCCC1)CC(C1=C(O)C2=CCCCC2OC1=O)c1ccccc1 (stereo not given) | – | > 100 µM (inactive) | > 100 µM (inactive) | > 100 µM (inactive) | > 100 µM (inactive) | > 100 µM (inactive) | > 100 µM (inactive) | > 100 µM (inactive) | > 100 µM (inactive) | > 100 µM (inactive) | > 100 µM (inactive) | > 100 µM (inactive) | > 100 µM (inactive) | > 100 µM (inactive) | > 100 µM (inactive) | > 100 µM (inactive)
Cc1cccc(-n2c(N)c(-c3nc4ccccc4[nH]3)sc2=S)c1 | 22.8 µM (inactive) | 48.4 µM (inactive) | – | 47.3 µM (inactive) | 29.6 µM (inactive) | 23.1 µM (inactive) | 25.3 µM (inactive) | 49.8 µM (inactive) | 25 µM (inactive) | 43.4 µM (inactive) | 20.7 µM (inactive) | 47.9 µM (inactive) | 21.8 µM (inactive) | 28.6 µM (inactive) | 33 µM (inactive) | 26.5 µM (inactive)
COc1ccc(C2C(C(=O)O)=C(CO)Oc3cc4c(cc32)OCO4)c(OC)c1 (stereo not given) | 84.5 µM (inactive) | > 100 µM (inactive) | 78.2 µM (inactive) | 98.2 µM (inactive) | 18.8 µM (inactive) | 67.6 µM (inactive) | > 100 µM (inactive) | > 100 µM (inactive) | 57.5 µM (inactive) | 78 µM (inactive) | > 100 µM (inactive) | > 100 µM (inactive) | 81.1 µM (inactive) | > 100 µM (inactive) | 36.9 µM (inactive) | > 100 µM (inactive)
CCOC(=O)Cn1c(=O)[nH]c(=O)c2c1ncn2Cc1ccccc1 | > 100 µM (inactive) | > 100 µM (inactive) | > 100 µM (inactive) | > 100 µM (inactive) | > 100 µM (inactive) | > 100 µM (inactive) | > 100 µM (inactive) | > 100 µM (inactive) | > 100 µM (inactive) | > 100 µM (inactive) | > 100 µM (inactive) | > 100 µM (inactive) | > 100 µM (inactive) | > 100 µM (inactive) | > 100 µM (inactive) | > 100 µM (inactive)
O/N=C1/C(=C/c2ccc(OCc3ccccc3)cc2)CCCC1C(NO)c1ccc(OCc2ccccc2)cc1 (stereo not given) | – | 5.43 µM (inactive) | 8.97 µM (inactive) | 33 µM (inactive) | 38.9 µM (inactive) | 5.24 µM (inactive) | 4.98 µM (inactive) | 12.7 µM (inactive) | 14.2 µM (inactive) | 6.41 µM (inactive) | – | > 100 µM (inactive) | 10.5 µM (inactive) | 10 µM (inactive) | 14.6 µM (inactive) | 5.57 µM (inactive)
Nc1c(-c2nc3ccccc3[nH]2)sc(=S)n1-c1ccccc1 | 96.2 µM (inactive) | 55.2 µM (inactive) | > 100 µM (inactive) | – | > 100 µM (inactive) | 92.9 µM (inactive) | > 100 µM (inactive) | > 100 µM (inactive) | 51.2 µM (inactive) | > 100 µM (inactive) | 34 µM (inactive) | > 100 µM (inactive) | 76.7 µM (inactive) | > 100 µM (inactive) | > 100 µM (inactive) | > 100 µM (inactive)
O=[N+]([O-])c1ccc(C2=Nn3c(nnc3-c3ccccc3)SC2)o1 | 19.7 µM (inactive) | 46.8 µM (inactive) | 17.6 µM (inactive) | 19.5 µM (inactive) | 44.3 µM (inactive) | 23.7 µM (inactive) | 17.6 µM (inactive) | 20.6 µM (inactive) | 17.3 µM (inactive) | 19.6 µM (inactive) | 5.81 µM (inactive) | > 100 µM (inactive) | 17.4 µM (inactive) | 20 µM (inactive) | – | 15.3 µM (inactive)
COc1ccc(-c2c3ccccc3c(-c3ccc(OC)cc3)c3ccccc23)cc1 | > 100 µM (inactive) | > 100 µM (inactive) | > 100 µM (inactive) | > 100 µM (inactive) | > 100 µM (inactive) | > 100 µM (inactive) | > 100 µM (inactive) | > 100 µM (inactive) | > 100 µM (inactive) | > 100 µM (inactive) | > 100 µM (inactive) | > 100 µM (inactive) | > 100 µM (inactive) | > 100 µM (inactive) | > 100 µM (inactive) | > 100 µM (inactive)
Cc1cc2nc3c(=O)[nH]c(=O)nc-3n(CC(O)C(O)C(O)CO)c2cc1N (stereo not given) | > 100 µM (inactive) | > 100 µM (inactive) | > 100 µM (inactive) | > 100 µM (inactive) | – | > 100 µM (inactive) | > 100 µM (inactive) | > 100 µM (inactive) | > 100 µM (inactive) | > 100 µM (inactive) | > 100 µM (inactive) | > 100 µM (inactive) | – | – | > 100 µM (inactive) | > 100 µM (inactive)
C/C=N\N1C(=O)c2ccccc2C1=O | > 100 µM (inactive) | > 100 µM (inactive) | > 100 µM (inactive) | > 100 µM (inactive) | > 100 µM (inactive) | > 100 µM (inactive) | > 100 µM (inactive) | > 100 µM (inactive) | > 100 µM (inactive) | > 100 µM (inactive) | > 100 µM (inactive) | – | – | > 100 µM (inactive) | > 100 µM (inactive) | > 100 µM (inactive)
CC1OC(n2cc(F)c(=O)[nH]c2=O)C=CC1O (stereo not given) | > 100 µM (inactive) | > 100 µM (inactive) | > 100 µM (inactive) | > 100 µM (inactive) | > 100 µM (inactive) | > 100 µM (inactive) | > 100 µM (inactive) | > 100 µM (inactive) | > 100 µM (inactive) | > 100 µM (inactive) | > 92.3 µM (inactive) | > 100 µM (inactive) | > 100 µM (inactive) | > 100 µM (inactive) | > 100 µM (inactive) | 37.2 µM (inactive)
CCc1ccccc1NC(=O)c1cccc([N+](=O)[O-])c1O | 17.2 µM (inactive) | 30.8 µM (inactive) | 24.2 µM (inactive) | 66.5 µM (inactive) | 19 µM (inactive) | 26.5 µM (inactive) | 47.5 µM (inactive) | 18.7 µM (inactive) | 26.7 µM (inactive) | 16.7 µM (inactive) | 5.41 µM (inactive) | 25 µM (inactive) | 23 µM (inactive) | 19.9 µM (inactive) | 22.2 µM (inactive) | 30.6 µM (inactive)
CCCN(CCC)C(=O)Cc1c2n(c3ccccc13)Cc1ccccc1-2 | 23.6 µM (inactive) | > 100 µM (inactive) | 28.8 µM (inactive) | > 100 µM (inactive) | > 100 µM (inactive) | 61.8 µM (inactive) | > 100 µM (inactive) | 45.7 µM (inactive) | > 100 µM (inactive) | 49.5 µM (inactive) | 59 µM (inactive) | > 100 µM (inactive) | > 100 µM (inactive) | > 100 µM (inactive) | 35.1 µM (inactive) | 28.8 µM (inactive)
